Results on one compound are retold here after patent publication US20190365878A1, “PHARMACEUTICAL TREATMENTS FOR PREVENTING OR TREATING PANCREATIC CANCER” (THE JOHNS HOPKINS UNIVERSITY, priority 2016, published 2019).

This test deals with Panc02 murine pancreatic adenocarcinoma cells. Put plainly: hemi-splenectomy liver metastasis mouse model, 90 day survival. The conditions noted are these: 28-day dosing scheme, followed 90 days. The class given is in vivo, C57/B16 mice.

Source text: Survival Proportions: 90 Day survival of all groups.
The inventors performed hemi-splenectomy with the injection of 2×10^6 Panc02 murine pancreatic adenocarcinoma cells on C57/B16 mice, aged 9-10 weeks to model metastasis of pancreatic tumor cells to the liver. Mice were divided into treatment groups and dosed with cyclophosphamide and GVAX vaccine as well as an oral IDO1 inhibitor PF-06840003, according to a 28-day dosing scheme.
An oral methocel vehicle was given as a placebo treatment. The IDO inhibitor PF-06840003 and oral methocel compounds were administered twice daily by oral gavage, starting on post-operative day 3 and extending through post-operative day 28. Cyclophosphamide was administered on post-operative day 3. GVAX vaccine was administered on post-operative days 4, 7, 14 and 21. Mice were followed for survival for 90 days.

As to `O=C1CC(c2c[nH]c3ccc(F)cc23)C(=O)N1` (stereo not shown) [PF-06840003], the survival result was “no significant effect on survival”.
